Measured values: US5576310A, “11-benzaldoxime-17β-methoxy-17α-methoxymethyl-estrasdiene derivatives, methods for their production and pharmaceuticals containing such compounds” (Jenapharm GmbH, priority 1994, dated 1996)

How the values were obtained:
[1] = tested on: early gravidity in the rat; assay: Inhibition of early gravidity (early abortive effect) in the rat after subcutaneous application from the 5th to 7th day of pregnancy; format: in vivo; details: for complete gravidity inhibition (N*/N) / complete gravidity inhibition (%) / ED 50 (complete gravidity inhibition): d5-d7; for complete gravidity inhibition (N*/N): N* females not pregnant / N inseminated females; for complete gravidity inhibition (N*/N) / complete gravidity inhibition (%): empty uteri; for ED 50 (complete gravidity inhibition): s.c., graphic determination
Description: Early abortive effect of RU 486 and J 914 (Example 1) and
J 900 (Example 2) in the rat after subcutaneous
application from the 5th to 7th day of pregnancy (dose
0.2 ml/animal/day in benzylbenzoate/castor oil
N number of inseminated females
N* number of females not pregnant
^++ graphic determination
Inhibition of early gravidity in the rat:
Female rats are mated in the pro-oestrus. If semen is found in the vaginal smear on the next day, this day is counted as day 1 (=d1) of the gravidity. Treatment with the test substance or vehicle is applied on d5-d7, autopsy is carried out on d9. The substances are injected subcutaneously in 0.2 ml of vehicle (benzyl benzoate/castor oil 1+4).

glucocorticoid receptor = target: T1, glucocorticoid receptor (Rattus norvegicus, UniProt P06536); assay: Receptor bonding affinity: competitive bonding of 3H-dexamethasone and test compound to glucocorticoid receptor in thymus cytosol of the adrenalectomized rat; format: binding; details: dexamethasone = 100%; tracer 3H-dexamethasone 20 nM; 18 hours at 0-4 °C; quotient of IC50 values x 100%
T1 construct: receptors in the cytosol from animal target organs; from tissue; host or cells: thymus cytosol of adrenalectomized rat
T1 sequence (P06536 1-795): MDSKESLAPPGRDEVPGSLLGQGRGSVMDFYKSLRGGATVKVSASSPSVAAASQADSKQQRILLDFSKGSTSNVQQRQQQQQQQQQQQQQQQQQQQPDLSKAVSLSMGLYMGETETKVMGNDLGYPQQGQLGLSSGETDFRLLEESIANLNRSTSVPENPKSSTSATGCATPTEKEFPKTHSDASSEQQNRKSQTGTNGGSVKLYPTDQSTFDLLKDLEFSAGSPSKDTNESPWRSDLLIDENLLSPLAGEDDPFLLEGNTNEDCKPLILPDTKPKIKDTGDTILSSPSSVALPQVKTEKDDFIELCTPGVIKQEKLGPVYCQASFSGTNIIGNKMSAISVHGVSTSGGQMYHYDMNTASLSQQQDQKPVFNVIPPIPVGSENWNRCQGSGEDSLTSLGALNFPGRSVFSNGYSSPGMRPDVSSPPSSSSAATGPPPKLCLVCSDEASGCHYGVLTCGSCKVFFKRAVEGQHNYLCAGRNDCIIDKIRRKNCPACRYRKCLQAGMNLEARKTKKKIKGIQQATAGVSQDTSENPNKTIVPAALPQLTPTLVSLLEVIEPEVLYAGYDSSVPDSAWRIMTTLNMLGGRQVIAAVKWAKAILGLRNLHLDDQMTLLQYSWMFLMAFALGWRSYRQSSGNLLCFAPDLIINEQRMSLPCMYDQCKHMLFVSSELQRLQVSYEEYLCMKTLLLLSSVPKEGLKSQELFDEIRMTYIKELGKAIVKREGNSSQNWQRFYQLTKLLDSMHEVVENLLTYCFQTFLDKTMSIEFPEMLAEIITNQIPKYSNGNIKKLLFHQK
Description: Measurement of bonding affinity for receptors
Receptor bonding affinity was determined by competitive bonding of a specifically binding ^3 H labelled hormone (tracer) and the compound to be tested to receptors in the cytosol from animal target organs. It was tried to obtain receptor saturation and a balanced reaction. The following incubation conditions were selected:
Glucocorticoid receptor: thymus cytosol of the adrenalectomized rat, thymi kept at -30° C., buffer: TED. Tracer: ^3 H-dexamethasone, 20 nM; reference substance: dexamethasone.
After an incubation period of 18 hours at 0°-4° C., bonded and free steroid was separated by mixing in active carbon/dextrane (1%/0.1%), centrifuging off and measuring the bonded ^3 H activity in the supernatant.
The IC50 for the compound to be tested and for the reference substance were determined from measurements in series of concentrations.

| Compound | complete gravidity inhibition (N*/N) ([1]; 0.1 mg/animal/day s.c.) | complete gravidity inhibition (%) ([1]; 0.1 mg/animal/day s.c.) | complete gravidity inhibition (N*/N) ([1]; 0.3 mg/animal/day s.c.) | complete gravidity inhibition (%) ([1]; 0.3 mg/animal/day s.c.) | complete gravidity inhibition (N*/N) ([1]; 1.0 mg/animal/day s.c.) | complete gravidity inhibition (%) ([1]; 1.0 mg/animal/day s.c.) | complete gravidity inhibition (N*/N) ([1]; 3.0 mg/animal/day s.c.) | complete gravidity inhibition (%) ([1]; 3.0 mg/animal/day s.c.) | ED 50 (complete gravidity inhibition) [1] | Relative molar bonding affinity (RBA) for the glucocorticoid receptor (glucocorticoid receptor) | inhibition capability of nidation, in words ([1]; as compared to RU 486) |
| --- | --- | --- | --- | --- | --- | --- | --- | --- | --- | --- | --- |
| COC[C@]1(OC)CC[C@H]2[C@@H]3CCC4=CC(=O)CCC4=C3[C@@H](c3ccc(C=NOC(C)=O)cc3)C[C@@]21C [Example 1, 11β-[4-(acetyloximinomethyl)phenyl]-17β-methoxy-17α-methoxymethyl-estra-4,9-diene-3-on] | 0/6 | 0% | 1/5 | 20% | 7/10 | 70% | 5/5 | 100% | 0.6 mg/animal/day | 73% |  |
| CCOC(=O)ON=Cc1ccc([C@H]2C[C@@]3(C)[C@@H](CC[C@]3(COC)OC)[C@@H]3CCC4=CC(=O)CCC4=C32)cc1 [Example 2, 11β-[4-(ethoxycarbonyloximinomethyl)phenyl]-17β-methoxy-17α-methoxymethyl-estra-4,9-diene-3-on] |  |  | 0/5 | 0% | 9/10 | 90% |  |  | 0.6 mg/animal/day | 66% | superior inhibition capability of nidation |
| CC#C[C@]1(O)CC[C@H]2[C@@H]3CCC4=CC(=O)CCC4=C3[C@@H](c3ccc(N(C)C)cc3)C[C@@]21C [RU 486, reference compound] |  |  | 0/5 | 0% | 2/5 | 40% | 5/5 | 100% | 1.1 mg/animal/day | 685% |  |
| CN(C)c1ccc([C@H]2C[C@]3(C)[C@@H](CC[C@]3(O)CCCO)[C@@H]3CCC4=CC(=O)CCC4=C32)cc1 [ZK 98299, reference compound] |  |  |  |  |  |  |  |  |  | 39% |  |
